The results in this text go back to patent US20220267260A1, “COMPOUNDS CONTAINING A SULFONIC GROUP AS KAT INHIBITORS” (Epizyme, Inc., priority 2016, published 2022).

Test [1] addresses T1, KAT5 (Homo sapiens, UniProt Q92993).
T1 construct: His-TEV tag (N, cleaved yes); made in house
The test can be described thus: KAT5 enzyme inhibition assay (SAMDI mass spectrometry). The settings on record: His-TEV-FL KAT5-Flag enzyme construct. The class given is biochemical.

Test [2] deals with T2, KAT6A (Homo sapiens, UniProt Q92794).
T2 construct: His-TEV tag (N, cleaved yes); made in house
Briefly: KAT6A enzyme inhibition assay (SAMDI mass spectrometry). The test is classed as biochemical. The settings on record: His-TEV-KAT6A 501-784 enzyme construct.

pIC50: −log10 of the molar value.

T2 sequence (Q92794 with tags, fused parts or gaps): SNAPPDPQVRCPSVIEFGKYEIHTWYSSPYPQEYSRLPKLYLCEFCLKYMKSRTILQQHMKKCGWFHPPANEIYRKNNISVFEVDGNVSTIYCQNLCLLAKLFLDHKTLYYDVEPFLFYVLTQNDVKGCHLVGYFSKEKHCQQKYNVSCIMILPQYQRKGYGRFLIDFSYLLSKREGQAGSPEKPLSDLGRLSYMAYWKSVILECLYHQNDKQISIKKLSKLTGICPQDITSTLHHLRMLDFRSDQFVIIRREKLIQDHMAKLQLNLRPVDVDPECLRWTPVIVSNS
T1 sequence (Q92993 with tags, fused parts or gaps): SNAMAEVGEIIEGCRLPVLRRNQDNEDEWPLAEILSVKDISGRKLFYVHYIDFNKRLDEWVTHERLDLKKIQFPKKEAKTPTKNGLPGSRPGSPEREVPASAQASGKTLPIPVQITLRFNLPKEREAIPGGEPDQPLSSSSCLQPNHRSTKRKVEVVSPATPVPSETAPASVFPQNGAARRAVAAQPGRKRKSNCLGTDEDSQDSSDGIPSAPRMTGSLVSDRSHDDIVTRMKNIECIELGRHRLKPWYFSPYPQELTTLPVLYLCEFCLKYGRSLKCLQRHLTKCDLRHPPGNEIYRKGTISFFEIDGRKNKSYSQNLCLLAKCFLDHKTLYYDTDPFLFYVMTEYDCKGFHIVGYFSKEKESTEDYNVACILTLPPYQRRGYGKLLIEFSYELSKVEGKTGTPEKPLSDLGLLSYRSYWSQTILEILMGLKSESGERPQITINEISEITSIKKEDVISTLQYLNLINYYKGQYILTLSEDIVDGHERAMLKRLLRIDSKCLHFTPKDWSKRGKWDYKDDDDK

What is called pIC50 is the negative decadic logarithm of the IC50, by convention in mol/L. Higher therefore signals a low IC50. Regarding `Cc1cc(C(=O)NNS(=O)(=O)c2ccccc2)cc(-c2ccccc2)c1F` [Compound I-126], the negative-log IC50 (pIC50) in test [1] was 4.00 to 4.30; in test [2] it was ≥ 5.00. For `O=C(NNS(=O)(=O)c1ccccc1)c1cccc(F)c1` [Compound I-191], the negative logarithm of the IC50 (pIC50) in test [1] was < 4.00. In the case of `COCCOc1cccc(-c2cc(C)c(F)c(C(=O)NNS(=O)(=O)CC3CCCCC3)c2)c1` [Compound I-270], the negative-log IC50 (pIC50) in test [1] is ≥ 5.00; in test [2], 4.30 to 5.00. For `Cc1cc(-c2cccc(F)c2)cc(C(=O)NNS(=O)(=O)C2CCOCC2)c1F` [Compound I-377] the same measures were ≥ 5.00 and ≥ 5.00.

Turning to `Cc1cc(-c2ccccc2)cc(C(=O)NNS(=O)(=O)c2ccc(=O)[nH]c2)c1F` [Compound I-162], the negative logarithm of the IC50 (pIC50) in test [1] was < 4.00; in test [2], ≥ 5.00. For `Cc1cc(-c2cccc(F)c2)cc(C(=O)NNS(=O)(=O)CC2CCCN(C(=O)CCN(C)C)C2)c1F` (stereo not drawn) [Compound I-329], in that order: 4.30 to 5.00 and 4.30 to 5.00. Take `COc1c(C)cc(-c2ccccc2)cc1C(=O)NNS(=O)(=O)C1CCCCC1` [Compound I-311]: the pIC50 in test [1] and in test [2] was < 4.00 in each case. Regarding `CCC(=O)N1CCC(S(=O)(=O)NNC(=O)c2cc(-c3ccccc3)cc(C)c2F)C1` (stereo not drawn) [Compound I-104], the results for the pIC50 in test [1] and in test [2] were 4.00 to 4.30 and 4.30 to 5.00, respectively. For `Cc1cc(-c2cccc(Cl)c2F)cc(C(=O)NNS(=O)(=O)CC2CCCCC2)c1F` [Compound I-366] the same measures were 4.30 to 5.00 and 4.00 to 4.30. For `O=C(NNS(=O)(=O)c1cccc(Cl)c1)c1c(F)ccc(-c2ncc[nH]2)c1F` [Compound I-170] the same measures were < 4.00 and 4.00 to 4.30. For `Cc1cc(-c2ccccc2)cc(C(=O)NNS(=O)(=O)C2CCN(C(=O)C(C)C)C2)c1F` (stereo not drawn) [Compound I-105], in that order: 4.30 to 5.00 and 4.30 to 5.00. With `O=C(NNS(=O)(=O)c1ccccc1)c1c(F)ccc(-c2cnc[nH]2)c1F` [Compound I-497], the values for the pIC50 in test [1] and in test [2] were 4.00 to 4.30 and 4.30 to 5.00, respectively. For `Cc1cc(-c2ccc(F)cc2)cc(C(=O)NNS(=O)(=O)C2CCCCC2)c1F` [Compound I-319], in that order: 4.30 to 5.00 and 4.00 to 4.30.

`O=C(NN[S+]([O-])c1ccccc1)c1ccccc1F` (stereo not drawn) [Compound I-133]: the pIC50 in test [1] and in test [2] was < 4.00 throughout. With `COCCNC(=O)c1cccc(-c2cc(C)c(F)c(C(=O)NNS(=O)(=O)C3CCCCC3)c2)c1` [Compound I-445], the negative logarithm of the IC50 (pIC50) in test [1] is 4.30 to 5.00; in test [2] it was < 4.00.

Turning to `Cc1c(-c2ccccc2)ccc(F)c1C(=O)NNS(=O)(=O)CC1CCCCC1` [Compound I-258], the negative-log IC50 (pIC50) in test [1] and in test [2] was 4.00 to 4.30 in each case. As to `Cc1cc(-c2ccccc2)cc(C(=O)NNS(=O)(=O)c2ccccc2Cl)c1F` [Compound I-263], the pIC50 in test [1] and in test [2] was ≥ 5.00 each time. As to `O=C(NNS(=O)(=O)c1ccccc1)c1cc(-c2ccccc2)cc2[nH]cnc12` [Compound I-53], the pIC50 in test [1] and in test [2] was 4.30 to 5.00 throughout. Take `O=C(NNS(=O)(=O)c1ccccc1)c1cc2ccccc2cc1F` [Compound I-262]: the pIC50 in test [1] is 4.00 to 4.30; in test [2], ≥ 5.00. For `O=C(NNS(=O)(=O)c1ccccc1)c1cccc(Cl)c1F` [Compound I-160], in that order: 4.30 to 5.00 and ≥ 5.00. For `Cc1cc(-c2ccccc2)cc(C(=O)NNS(=O)(=O)c2cccc(C(=O)O)c2)c1F` [Compound I-256], in that order: 4.00 to 4.30 and ≥ 5.00. For `O=C(NCCO)c1cc(Cl)c(F)c(C(=O)NNS(=O)(=O)C2CCOCC2)c1` [Compound I-480], in that order: < 4.00 and < 4.00. On to `O=C(NNS(=O)(=O)c1cccc(F)c1)c1cc(-c2ccccc2)ccc1F` [Compound I-154], for which the negative logarithm of the IC50 (pIC50) in test [1] is 4.30 to 5.00; in test [2] it was ≥ 5.00. For `COCCC(=O)N1CCC(S(=O)(=O)NNC(=O)c2cc(-c3ccccc3)cc(C)c2F)CC1` [Compound I-109], in that order: 4.30 to 5.00 and 4.30 to 5.00. As to `CC(=O)N1CCOC(CS(=O)(=O)NNC(=O)c2cc(-c3cccc(F)c3)cc(C)c2F)C1` (stereo not drawn) [Compound I-429], the negative-log IC50 (pIC50) in test [1] and in test [2] was ≥ 5.00 in each case. As to `Cc1cccc(-c2cc(Cl)c(F)c(C(=O)NNS(=O)(=O)CC3CCCN(C(=O)C4CCC4)C3)c2)c1` (stereo not drawn) [Compound I-512], the pIC50 was ≥ 5.00 in test [1] and < 4.00 in test [2]. `O=C(NNS(=O)(=O)c1ccccc1)c1cnn(Cc2ccccc2)c1` [Compound I-230]: the negative-log IC50 (pIC50) in test [1] and in test [2] was < 4.00 throughout.

For the molecule `Cc1cc(-c2ccccc2)cc(C(=O)NNS(=O)(=O)C2CCCC2)c1F` [Compound I-19], the negative-log IC50 (pIC50) in test [1] was ≥ 5.00; in test [2], 4.30 to 5.00. For `O=C(NNS(=O)(=O)c1ccccc1)c1c(F)ccc2ccccc12` [Compound I-236] the same measures were < 4.00 and < 4.00.

In the case of `Cc1nn(-c2ccccc2)cc1C(=O)NNS(=O)(=O)c1ccccc1` [Compound I-124], the negative-log IC50 (pIC50) in test [1] and in test [2] was < 4.00 throughout. Turning to `Cc1cc(-c2ccccc2)cc(C(=O)NNS(=O)(=O)c2ccc(C(N)=O)cc2)c1F` [Compound I-239], the negative-log IC50 (pIC50) in test [1] and in test [2] was ≥ 5.00 throughout. On to `Cc1cc(-c2ccccc2)cc(C(=O)Nc2n[nH]c3ncccc23)c1F` [Compound I-282], for which the pIC50 in test [1] was 4.00 to 4.30; in test [2], 4.30 to 5.00. For `Cc1cc(-c2ccccc2)cc(C(=O)NNS(=O)(=O)c2cccc(CO)c2)c1F` [Compound I-261] the same measures were ≥ 5.00 and ≥ 5.00. In the case of `CC(=O)N1CCCC(CS(=O)(=O)NNC(=O)c2cc(-c3cccc(C)c3)cc(Cl)c2F)C1` (stereo not drawn) [Compound I-515], the results for the pIC50 in test [1] and in test [2] were ≥ 5.00 and < 4.00, respectively. For `O=C(NNS(=O)(=O)c1ccc2ccccc2c1)c1cccc(-c2ccccc2)c1` [Compound I-246], in that order: 4.00 to 4.30 and ≥ 5.00. In the case of `COc1ccccc1-c1cc(C)c(F)c(C(=O)NNS(=O)(=O)c2ccccc2)c1` [Compound I-304], the results for the negative-log IC50 (pIC50) in test [1] and in test [2] were 4.00 to 4.30 and ≥ 5.00, respectively. For `CCc1cccc(S(=O)(=O)NNC(=O)c2cc(-c3ccccc3)cc(C)c2F)c1` [Compound I-221] the same measures were 4.30 to 5.00 and ≥ 5.00. For `Cc1cc(-c2cccc(F)c2)cc(C(=O)NNS(=O)(=O)CC2CCCN(C(=O)C3CCC3)C2)c1F` (stereo not drawn) [Compound I-274], in that order: ≥ 5.00 and ≥ 5.00.

In the case of `Cc1cc(-c2cccc(F)c2)cc(C(=O)NNS(=O)(=O)CC2CCCN(C(=O)OC(C)(C)C)C2)c1F` (stereo not drawn) [Compound I-285], the pIC50 in test [1] and in test [2] was ≥ 5.00 each time.

In the case of `O=C(NNS(=O)(=O)c1ccc2ccccc2c1)c1ccccc1F` [Compound I-238], the pIC50 in test [1] was 4.00 to 4.30.

As for `Cc1cc(-c2ccccc2)cc(C(=O)NNS(=O)(=O)CC2CCCN(C(=O)OC(C)(C)C)C2)c1F` (stereo not drawn) [Compound I-352], the pIC50 in test [1] and in test [2] was ≥ 5.00 in each case. As for `O=C(NNS(=O)(=O)C1CCN(C(=O)C2CCC2)CC1)c1cc(Cl)cc(Cl)c1F` [Compound I-436], the pIC50 in test [1] is 4.00 to 4.30; in test [2], < 4.00.

As to `Cc1cc(-c2ccccc2)cc(C(=O)NNS(=O)(=O)c2ccccn2)c1F` [Compound I-209], the negative logarithm of the IC50 (pIC50) in test [1] and in test [2] was ≥ 5.00 throughout. As for `CCC(=O)N1CCCC(CS(=O)(=O)NNC(=O)c2cc(-c3cccc(F)c3)cc(C)c2F)C1` (stereo not drawn) [Compound I-372], the negative-log IC50 (pIC50) in test [1] and in test [2] was ≥ 5.00 throughout. Turning to `CCNC(=O)N1CCC(CS(=O)(=O)NNC(=O)c2cc(-c3cccc(C)c3)cc(Cl)c2F)C1` (stereo not drawn) [Compound I-518], the pIC50 in test [1] and in test [2] was < 4.00 in each case. In the case of `O=C(NNS(=O)(=O)C1CCCCC1)c1nc(-c2ccccc2)cc(Cl)c1F` [Compound I-479], the negative-log IC50 (pIC50) in test [1] was < 4.00; in test [2] it was 4.00 to 4.30.

Turning to `Cc1cc(-c2ccccc2)cc(C(=O)NNS(=O)(=O)Cc2ccc(Cl)cc2)c1F` [Compound I-6], the pIC50 in test [1] and in test [2] was ≥ 5.00 in each case. For the molecule `CN1CCN(Cc2cc(Cl)c(F)c(C(=O)NNS(=O)(=O)C3CCOCC3)c2)CC1` [Compound I-442], the negative logarithm of the IC50 (pIC50) in test [1] and in test [2] was < 4.00 in each case. Take `Cc1cc(-c2ccccc2)cc(C(=O)NNS(=O)(=O)C(C)(C)C)c1F` [Compound I-21]: the negative logarithm of the IC50 (pIC50) in test [1] and in test [2] was < 4.00 in each case. For `O=C(NNS(=O)(=O)c1ccc(Cl)cc1)c1ccccc1F` [Compound I-143], the results for the pIC50 in test [1] and in test [2] were < 4.00 and 4.30 to 5.00, respectively. In the case of `Cc1cc(-c2ccccc2)cc(C(=O)NNS(=O)(=O)c2cccc(C3CC3)c2)c1F` [Compound I-201], the pIC50 in test [1] was < 4.00. Take `COc1ccc(S(=O)(=O)NNC(=O)c2ccccc2F)cc1` [Compound I-179]: the pIC50 in test [1] was < 4.00. On to `COc1cccc(C(=O)NNS(=O)(=O)c2ccccc2)c1` [Compound I-182], for which the negative logarithm of the IC50 (pIC50) in test [1] is < 4.00. On the same count and under the same terms, under `Cc1cc(-c2ccccc2)cc(C(=O)NNS(=O)(=O)c2ccccc2)c1F` [Compound I-157] stands ≥ 5.00; under `O=C(NNS(=O)(=O)c1ccccc1F)c1ccccc1` [Compound I-163], < 4.00. The same measure, in the same setting: as for `O=C(NNS(=O)(=O)c1ccc2ccccc2c1)c1ccccc1` [Compound I-146], the figure is < 4.00; as for `O=C(NNS(=O)(=O)CC1CCOCC1)c1cc(C2CCCO2)cc(Cl)c1F` (stereo not drawn) [Compound I-506], ≥ 5.00; as for `CC(C)n1nc(CNC(=O)CNS(=O)(=O)c2ccccc2)c2ccccc21` [Compound I-525], < 4.00.

For `O=C(NNS(=O)(=O)c1ccccc1)c1ccc(Cl)cc1` [Compound I-181], the negative-log IC50 (pIC50) in test [1] was < 4.00. On the same count and under the same terms, as for `Cc1cc(-c2ccccc2)cc(C(=O)NNS(=O)(=O)c2cccc(C(C)C)c2)c1F` [Compound I-218], the figure is < 4.00.
